Patent US20240390352A1, “PHARMACEUTICAL COMPOSITION FOR PREVENTING OR TREATING CANCER COMPRISING CARNITINE ACYLCARNITINE CARRIER INHIBITOR AND ANTITUMOR AGENT” (NEW CANCER CURE - BIO CO.,LTD., priority 2021, published 2024)
Values joined by “and” are separate entries in the source; they are usually repeats but may differ in a detail not shown here. Equal values may be shown once. “Also recorded” adds a separate entry of the source.

Key:
HCT-116 cells = test: SRB assay cancer cell growth rate, HCT-116; type: cell-based; settings: relative to control (100%), 48 hours, KN510 200 μM, irinotecan 2.5 μM, 5-FU 5 μM, gemcitabine 2.5 μM, paclitaxel 10 nM, cisplatin 1 μM, alone or KN510 + anticancer drug
CAKI-1 cells = test: SRB assay cancer cell growth rate, CAKI-1; type: cell-based; settings: relative to control (100%), 48 hours, KN510 200 μM, irinotecan 2.5 μM, 5-FU 5 μM, gemcitabine 2.5 μM, paclitaxel 10 nM, cisplatin 1 μM, alone or KN510 + anticancer drug
ACHN cells = test: SRB assay cancer cell growth rate, ACHN; type: cell-based; settings: relative to control (100%), 48 hours, KN510 200 μM, irinotecan 2.5 μM, 5-FU 5 μM, gemcitabine 2.5 μM, paclitaxel 10 nM, cisplatin 1 μM, alone or KN510 + anticancer drug
UACC62 cells = test: SRB assay cancer cell growth rate, UACC62; type: cell-based; settings: relative to control (100%), 48 hours, KN510 200 μM, irinotecan 2.5 μM, 5-FU 5 μM, gemcitabine 2.5 μM, paclitaxel 10 nM, cisplatin 1 μM, alone or KN510 + anticancer drug
UACC257 cells = test: SRB assay cancer cell growth rate, UACC257; type: cell-based; settings: relative to control (100%), 48 hours, KN510 200 μM, irinotecan 2.5 μM, 5-FU 5 μM, gemcitabine 2.5 μM, paclitaxel 10 nM, cisplatin 1 μM, alone or KN510 + anticancer drug
OVCAR-8 cells = test: SRB assay cancer cell growth rate, OVCAR-8; type: cell-based; settings: relative to control (100%), 48 hours, KN510 200 μM, irinotecan 2.5 μM, 5-FU 5 μM, gemcitabine 2.5 μM, paclitaxel 10 nM, cisplatin 1 μM, alone or KN510 + anticancer drug
A549 cells = test: SRB assay cancer cell growth rate, A549; type: cell-based; settings: relative to control (100%), 48 hours, KN510 200 μM, irinotecan 2.5 μM, 5-FU 5 μM, gemcitabine 2.5 μM, paclitaxel 10 nM, cisplatin 1 μM, alone or KN510 + anticancer drug
PC-3 cells = test: SRB assay cancer cell growth rate, PC-3; type: cell-based; settings: relative to control (100%), 48 hours, KN510 200 μM, irinotecan 2.5 μM, 5-FU 5 μM, gemcitabine 2.5 μM, paclitaxel 10 nM, cisplatin 1 μM, alone or KN510 + anticancer drug
SR cells = test: SRB assay cancer cell growth rate, SR; type: cell-based; settings: relative to control (100%), 48 hours, KN510 200 μM, irinotecan 2.5 μM, 5-FU 5 μM, gemcitabine 2.5 μM, paclitaxel 10 nM, cisplatin 1 μM, alone or KN510 + anticancer drug
K562 cells = test: SRB assay cancer cell growth rate, K562; type: cell-based; settings: relative to control (100%), 48 hours, KN510 200 μM, irinotecan 2.5 μM, 5-FU 5 μM, gemcitabine 2.5 μM, paclitaxel 10 nM, cisplatin 1 μM, alone or KN510 + anticancer drug
[1] = system: colon cancer cell lines HCT-116 cells and COLO-205 cells; test: Synergistic effect of omeprazole and anticancer drug, colon cancer cell lines; type: cell-based; settings: anticancer drug combined with omeprazole (KN510) versus each treatment alone
[2] = system: renal cell carcinoma cell lines CAKI-1 and ACHN cells; test: Synergistic effect of omeprazole and anticancer drug, renal cancer cell lines; type: cell-based; settings: anticancer drug combined with omeprazole (KN510) versus each treatment alone
[3] = system: liver cancer cell lines SK-HEP-1 cells and Huh-7 cells; test: Synergistic effect of omeprazole and anticancer drug, liver cancer cell lines; type: cell-based; settings: anticancer drug combined with omeprazole (KN510) versus each treatment alone
[4] = system: glioblastoma (GBM) cell lines, U-87 MG cells and T87G cells; test: Synergistic effect of omeprazole and anticancer drug, glioblastoma cell lines; type: cell-based; settings: anticancer drug combined with omeprazole (KN510) versus each treatment alone
[5] = system: melanoma cell lines UACC62 cells and UACC257 cells; test: Synergistic effect of omeprazole and anticancer drug, melanoma cell lines; type: cell-based; settings: anticancer drug combined with omeprazole (KN510) versus each treatment alone
[6] = system: pancreatic ductal adenocarcinoma (PDAC) cell lines, MIA PaCa-2 cells and PANC-1 cells; test: Synergistic effect of omeprazole and anticancer drug, pancreatic cancer cell lines; type: cell-based; settings: anticancer drug combined with omeprazole (KN510) versus each treatment alone
[7] = system: MKN-28 cells and AGS cells, stomach cancer cells; test: Synergistic effect of omeprazole and anticancer drug, stomach cancer cells; type: cell-based; settings: anticancer drug combined with omeprazole (KN510) versus each treatment alone
[8] = system: ovarian cancer cells, OVCAR-8 cells and SK-OV-3 cells; test: Synergistic effect of omeprazole and anticancer drug, ovarian cancer cells; type: cell-based; settings: anticancer drug combined with omeprazole (KN510) versus each treatment alone
[9] = system: A549 and H23 lung cancer cells; test: Synergistic effect of omeprazole and anticancer drug, lung cancer cells; type: cell-based; settings: anticancer drug combined with omeprazole (KN510) versus each treatment alone
[10] = system: breast cancer cells, MDA-MB-231 cells and MCF-7 cells; test: Synergistic effect of omeprazole and anticancer drug, breast cancer cells; type: cell-based; settings: anticancer drug combined with omeprazole (KN510) versus each treatment alone
[11] = system: prostate cancer cells, PC-3 cells and DU-145 cells; test: Synergistic effect of omeprazole and anticancer drug, prostate cancer cells; type: cell-based; settings: anticancer drug combined with omeprazole (KN510) versus each treatment alone
[12] = system: leukemia cells, SR cells and K562 cells; test: Synergistic effect of omeprazole and anticancer drug, leukemia cells; type: cell-based; settings: anticancer drug combined with omeprazole (KN510) versus each treatment alone
[13] = system: MIA PaCa-2 cells xenograft tumor; test: Pancreatic cancer xenograft tumor model; type: in vivo, Balb/c nude mice; settings: irinotecan 20 mg/kg IP 1 days/week, alone or combined
Procedure: To determine the anticancer synergistic effects of omeprazole (KN510) and irinotecan co-administration in vivo, a pancreatic cancer xenograft tumor model was constructed and administered with the drugs.
Specifically, 6-8 week old Balb/c nude mice (Orient, Korea) were inoculated subcutaneously with MIA PaCa-2 cells (1×10^7) in 100 μl PBS using 1 ml syringe, and when the tumor size reached 100 mm^3, the mice were randomly divided into 4 groups with 4 mice per group, and then treated with drugs as shown in Table 14 below.
We also performed two separate experiments with omeprazole (KN510), one at a concentration of 50 mg/kg and the other at 100 mg/kg. • 1) Control (solvent treatment) • 2) Omeprazole (KN510) alone (50 mg/kg or 100 mg/kg, P.O. injection), • 3) Irinotecan alone (20 mg/kg, I.P injection), • 4) Omeprazole (KN510) (50 mg/kg or 100 mg/kg)+irinotecan (20 mg/kg/) as a combination treatment group
Primary tumor size was measured weekly using calipers. Tumor volumes were calculated using Equation 1 below, and data are expressed as mean (mean)+standard deviation (SD) values of mouse tumor volume per group.

[14] = experiment with KN510 50 mg/kg PO 5 days/week
[15] = experiment with KN510 100 mg/kg PO 5 days/week

Compound: O=c1[nH]cc(F)c(=O)[nH]1 [5-FU, fluorouracil]
- HCT-116 growth rate average (%) (HCT-116 cells): 41.59%
- CAKI-1 growth rate average (%) (CAKI-1 cells): 47.91%
- ACHN growth rate average (%) (ACHN cells): 48.97%
- UACC62 growth rate average (%) (UACC62 cells): 52.14%
- UACC257 growth rate average (%) (UACC257 cells): 62.17%
- OVCAR-8 growth rate average (%) (OVCAR-8 cells): 27.12%
- A549 growth rate average (%) (A549 cells): 27.36%
- PC-3 growth rate average (%) (PC-3 cells): 55.19%
- SR growth rate average (%) (SR cells): 96.15%
- K562 growth rate average (%) (K562 cells): 99.83%
- synergistic effect of omeprazole and an anticancer drug in combination, colon cancer [1]: significantly inhibited; also recorded: Positive effect
- synergistic effect of omeprazole and an anticancer drug in combination, renal cell carcinoma [2]: significantly inhibited; also recorded: Positive effect
- synergistic effect of omeprazole and an anticancer drug in combination, liver cancer [3]: significantly inhibited; also recorded: Positive effect
- synergistic effect of omeprazole and an anticancer drug in combination, glioblastoma (GBM) [4]: Negative effect
- synergistic effect of omeprazole and an anticancer drug in combination, melanoma [5]: significantly inhibited; also recorded: Positive effect
- synergistic effect of omeprazole and an anticancer drug in combination, pancreatic cancer (PDAC) [6]: Negative effect
- synergistic effect of omeprazole and an anticancer drug in combination, stomach cancer [7]: Negative effect
- synergistic effect of omeprazole and an anticancer drug in combination, ovarian cancer [8]: Negative effect
- synergistic effect of omeprazole and an anticancer drug in combination, lung cancer [9]: significantly inhibited; also recorded: Positive effect
- synergistic effect of omeprazole and an anticancer drug in combination, breast cancer [10]: Negative effect
- synergistic effect of omeprazole and an anticancer drug in combination, prostate cancer [11]: Negative effect
- synergistic effect of omeprazole and an anticancer drug in combination, leukemia [12]: significantly inhibited; also recorded: Positive effect

Compound: N.N.[Cl][Pt][Cl] [Cisplatin]
- HCT-116 growth rate average (%) (HCT-116 cells): 100.00%
- CAKI-1 growth rate average (%) (CAKI-1 cells): 88.17%
- ACHN growth rate average (%) (ACHN cells): 78.57%
- UACC62 growth rate average (%) (UACC62 cells): 62.76%
- UACC257 growth rate average (%) (UACC257 cells): 76.16%
- OVCAR-8 growth rate average (%) (OVCAR-8 cells): 51.47%
- A549 growth rate average (%) (A549 cells): 99.46%
- PC-3 growth rate average (%) (PC-3 cells): 82.60%
- SR growth rate average (%) (SR cells): 93.52%
- K562 growth rate average (%) (K562 cells): 102.62%
- synergistic effect of omeprazole and an anticancer drug in combination, colon cancer [1]: Negative effect
- synergistic effect of omeprazole and an anticancer drug in combination, renal cell carcinoma [2]: Negative effect
- synergistic effect of omeprazole and an anticancer drug in combination, liver cancer [3]: Negative effect
- synergistic effect of omeprazole and an anticancer drug in combination, glioblastoma (GBM) [4]: Negative effect
- synergistic effect of omeprazole and an anticancer drug in combination, melanoma [5]: Negative effect
- synergistic effect of omeprazole and an anticancer drug in combination, pancreatic cancer (PDAC) [6]: Negative effect
- synergistic effect of omeprazole and an anticancer drug in combination, stomach cancer [7]: Negative effect
- synergistic effect of omeprazole and an anticancer drug in combination, ovarian cancer [8]: Positive effect
- synergistic effect of omeprazole and an anticancer drug in combination, ovarian cancer ([8]; listed as cisplatin): significantly inhibited
- synergistic effect of omeprazole and an anticancer drug in combination, lung cancer [9]: Negative effect
- synergistic effect of omeprazole and an anticancer drug in combination, breast cancer [10]: Negative effect
- synergistic effect of omeprazole and an anticancer drug in combination, prostate cancer [11]: Negative effect
- synergistic effect of omeprazole and an anticancer drug in combination, leukemia [12]: Positive effect
- synergistic effect of omeprazole and an anticancer drug in combination, leukemia ([12]; listed as cisplatin): significantly inhibited

Compound: COc1ccc2[nH]c([S+]([O-])Cc3ncc(C)c(OC)c3C)nc2c1 (centres unmarked) [KN510, omeprazole]
- HCT-116 growth rate average (%) (HCT-116 cells): 35.30%
- CAKI-1 growth rate average (%) (CAKI-1 cells): 41.69% and 35.30%
- UACC257 growth rate average (%) (UACC257 cells): 10.97% and 3.31% and 3.10% and 4.33%
- OVCAR-8 growth rate average (%) (OVCAR-8 cells): 30.64% and 38.65%
- A549 growth rate average (%) (A549 cells): 10.47%
- PC-3 growth rate average (%) (PC-3 cells): 12.70%
- SR growth rate average (%) (SR cells): 42.75%
- K562 growth rate average (%) (K562 cells): 34.61%
- Tumor volume, 2 week average [13, 14]: 143.01 mm^3
- Tumor volume, 2 week average [13, 15]: 93.96 mm^3
- Tumor volume, 3 week average [13, 14]: 675.69 mm^3
- Tumor volume, 3 week average [13, 15]: 229.95 mm^3
- Tumor volume, 4 week average [13, 14]: 965.63 mm^3
- Tumor volume, 4 week average [13, 15]: 469.90 mm^3
- Tumor volume, 5 week average [13, 14]: 1296.93 mm^3
- Tumor volume, 5 week average [13, 15]: 843.25 mm^3
